Test results taken from patent US11230540B2, “Substituted triazole derivatives and uses thereof” (Bayer Pharma Aktiengesellschaft, priority 2017, dated 2022).
Counter-ions that a name gives are not always drawn.

Assays:
human V1a receptor = target: T1, human V1a receptor (Homo sapiens, UniProt P37288); assay: Cellular in vitro assay for vasopressin receptor activity, V1a receptor cell line (aequorin luminescence); type: cell-based; conditions: for IC50: CHO cell line transfected with human V1a receptor, [Arg8]-vasopressin at EC50 concentration, read-out: IC50 hV1a; for ratio IC50 hV2/hV1a: selectivity ratio of the IC50 values hV2/hV1a
T1 construct: expressed in transfected cells; host or cells: CHO K1 (Chinese hamster ovary), also stably transfected with a modified aequorin
T1 sequence (P37288 whole entry): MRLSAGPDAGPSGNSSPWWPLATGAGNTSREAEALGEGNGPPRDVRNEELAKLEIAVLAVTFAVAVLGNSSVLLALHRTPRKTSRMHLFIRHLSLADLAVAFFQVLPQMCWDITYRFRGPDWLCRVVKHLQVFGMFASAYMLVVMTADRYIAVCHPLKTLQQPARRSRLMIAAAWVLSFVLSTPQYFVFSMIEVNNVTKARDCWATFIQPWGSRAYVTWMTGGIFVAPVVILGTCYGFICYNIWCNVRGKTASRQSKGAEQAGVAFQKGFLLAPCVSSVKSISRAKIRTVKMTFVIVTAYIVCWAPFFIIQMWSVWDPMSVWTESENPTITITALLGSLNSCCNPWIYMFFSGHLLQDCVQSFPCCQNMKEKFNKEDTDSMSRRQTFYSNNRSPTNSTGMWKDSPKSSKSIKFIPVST
Outline: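 Recombinant CHO K1 cells stably expressing human V1a receptor and aequorin, loaded with coelenterazine, were exposed to test compounds for 10 minutes before [Arg^8]-vasopressin at EC50 concentration. Calcium-triggered luminescence was measured immediately, giving IC50 values.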

human V2 receptor = target: T2, human V2 receptor (Homo sapiens, UniProt P30518); assay: Cellular in vitro assay for vasopressin receptor activity, V2 receptor cell line (CRE-luciferase); type: cell-based; conditions: CHO cell line transfected with human V2 receptor; [Arg8]-vasopressin at EC50 concentration; read-out: IC50 hV2
T2 construct: expressed in transfected cells; host or cells: CHO K1 (Chinese hamster ovary) expressing firefly luciferase under a CRE-responsive promoter
T2 sequence (P30518 whole entry): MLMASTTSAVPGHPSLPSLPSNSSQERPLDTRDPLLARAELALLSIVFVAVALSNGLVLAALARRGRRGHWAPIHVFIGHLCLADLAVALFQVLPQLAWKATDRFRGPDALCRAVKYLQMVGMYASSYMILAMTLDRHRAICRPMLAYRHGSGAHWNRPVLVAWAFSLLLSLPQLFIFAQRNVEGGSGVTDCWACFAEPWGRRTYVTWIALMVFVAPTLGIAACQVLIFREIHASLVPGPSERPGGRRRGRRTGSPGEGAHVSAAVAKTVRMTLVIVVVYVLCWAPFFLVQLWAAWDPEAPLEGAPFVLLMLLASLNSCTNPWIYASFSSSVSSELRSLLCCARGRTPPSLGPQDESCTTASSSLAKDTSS
Outline: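 CHO K1 cells stably expressing human V2 receptor with CRE-driven firefly luciferase, plated the day before. Test compounds at various concentrations added together with [Arg^8]-vasopressin at EC50 concentration, 3 h at 37° C, 5% CO2. Luminescence read after Triton lysis and luciferin addition; IC50 values reported.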

Compound	IC50 (human V1a receptor) [nM]	ratio IC50 hV2/hV1a (human V1a receptor)	IC50 (human V2 receptor) [nM]
CON(C)C(=O)c1nc(Cn2nc(-c3ccc(Cl)cc3)n(C[C@H](O)C(F)(F)F)c2=O)nn1-c1cccc(Cl)c1 [Example 45, 1-(3-Chlorophenyl)-3-({3-(4-chlorophenyl)-5-oxo-4-[(2S)-3,3,3-trifluoro-2-hydroxypropyl]-4,5-dihydro-1H-1,2,4-triazol-1-yl}methyl)-N-methoxy-N-methyl-1H-1,2,4-triazole-5-carboxamide]	0.64	5.7	3.66
CNC(=O)c1nc(Cn2nc(-c3ccc(Cl)cc3)n(C[C@H](O)C(F)(F)F)c2=O)nn1-c1ncccc1OC [Example 21, 3-({3-(4-Chlorophenyl)-5-oxo-4-[(2S)-3,3,3-trifluoro-2-hydroxypropyl]-4,5-dihydro-1H-1,2,4-triazol-1-yl}methyl)-1-(3-methoxypyridin-2-yl)-N-methyl-1H-1,2,4-triazole-5-carboxamide]	6.05	3.7	22.5
CC1(CNC(=O)c2nc(Cn3nc(-c4ccc(Cl)cc4)n(C[C@H](O)C(F)(F)F)c3=O)nn2-c2ncccc2OC(F)(F)F)COC1 [Example 7, 3-({3-(4-Chlorophenyl)-5-oxo-4-[(2S)-3,3,3-trifluoro-2-hydroxypropyl]-4,5-dihydro-1H-1,2,4-triazol-1-yl}methyl)-N-[(3-methyloxetan-3-yl)methyl]-1-[3-(trifluoromethoxy)pyridin-2-yl]-1H1,2,4-triazole-5-carboxamide]	2.55	131.4	335
CC(C)(C)NC(=O)c1nc(Cn2nc(-c3ccc(Cl)cc3)n(C[C@H](O)C(F)(F)F)c2=O)nn1-c1ncccc1Cl [Example 27, N-tert-Butyl-3-({3-(4-chlorophenyl)-5-oxo-4-[(2S)-3,3,3-trifluoro-2-hydroxypropyl]-4,5-dihydro-1H-1,2,4-triazol-1-yl}methyl)-1-(3-chloropyridin-2-yl)-1H-1,2,4-triazole-5-carboxamide]	4.15	25.5	106
CN(C)C(=O)c1nc(Cn2nc(-c3ccc(Cl)cc3)n(C[C@H](O)C(F)(F)F)c2=O)nn1-c1cccc(Cl)c1 [Example 35, 1-(3-Chlorophenyl)-3-({3-(4-chlorophenyl)-5-oxo-4-[(2S)-3,3,3-trifluoro-2-hydroxypropyl]-4,5-dihydro-1H-1,2,4-triazol-1-yl}methyl)-N,N-dimethyl-1H-1,2,4-triazole-5-carboxamide]	4.92	0.7	3.64
O=C(c1nc(Cn2nc(-c3ccc(Cl)cc3)n(C[C@H](O)C(F)(F)F)c2=O)nn1-c1cccc(F)c1)N1CCNCC1 [Example 41, 5-(4-Chlorophenyl)-2-{[1-(3-fluorophenyl)-5-(piperazin-1-ylcarbonyl)-1H-1,2,4-triazol-3-yl]methyl}-4-[(2S)-3,3,3-trifluoro-2-hydroxypropyl]-2,4-dihydro-3H-1,2,4-triazol-3-one trifluoroacetate]	19.3	7.4	141
CC(C)(C)NC(=O)c1nc(Cn2nc(-c3ccc(Cl)cc3)n(C[C@H](O)C(F)(F)F)c2=O)nn1-c1ncccc1OC(F)(F)F [Example 29, N-tert-Butyl-3-({3-(4-chlorophenyl)-5-oxo-4-[(2S)-3,3,3-trifluoro-2-hydroxypropyl]-4,5-dihydro-1H-1,2,4-triazol-1-yl}methyl)-1-[3-(trifluoromethoxy)pyridin-2-yl]-1H-1,2,4-triazole-5-carboxamide]	19.5	32.6	635
CC1(O)CCN(C(=O)c2nc(Cn3nc(-c4ccc(Cl)cc4)n(C[C@H](O)C(F)(F)F)c3=O)nn2CCC(F)(F)F)C1 (single isomer, unassigned) [Example 23]	285	0.9	245
CC(C)(N)CNC(=O)c1nc(Cn2nc(-c3ccc(Cl)cc3)n(C[C@H](O)C(F)(F)F)c2=O)nn1-c1cnccc1Cl [Example 4, N-(2-Amino-2-methylpropyl)-3-({3-(4-chlorophenyl)-5-oxo-4-[(2S)-3,3,3-trifluoro-2-hydroxypropyl]-4,5-dihydro-1H-1,2,4-triazol-1-yl}methyl)-1-(4-chloropyridin-3-yl)-1H-1,2,4-triazole-5-carboxamide]	0.49	845.4	410
COCCNC(=O)c1nc(Cn2nc(-c3ccc(Cl)cc3)n(C[C@H](O)C(F)(F)F)c2=O)nn1-c1cccc(F)c1 [Example 37, 3-({3-(4-Chlorophenyl)-5-oxo-4-[(2S)-3,3,3-trifluoro-2-hydroxypropyl]-4,5-dihydro-1H-1,2,4-triazol-1-yl}methyl)-1-(3-fluorophenyl)-N-(2-methoxyethyl)-1H-1,2,4-triazole-5-carboxamide]	38.6	0.6	23.4

Results, then the compound that gave them:

IC50 (human V1a receptor) [nM]	ratio IC50 hV2/hV1a (human V1a receptor)	IC50 (human V2 receptor) [nM]	Compound
135	8.8	1190	NC(CNC(=O)c1nc(Cn2nc(-c3ccc(Cl)cc3)n(C[C@H](O)C(F)(F)F)c2=O)nn1-c1ncccc1C(F)(F)F)C(F)(F)F (mixture of isomers) [Example 51, N-(2-Amino-3,3,3-trifluoropropyl)-3-({3-(4-chlorophenyl)-5-oxo-4-[(2S)-3,3,3-trifluoro-2-hydroxypropyl]-4,5-dihydro-1H-1,2,4-triazol-1-yl}methyl)-1-[3-(trifluoromethyl)pyridin-2-yl]-1H1,2,4-triazole-5-carboxamide hydrochloride]
1.1	214.6	235	CC1(C)CN(C(=O)c2nc(Cn3nc(-c4ccc(Cl)cc4)n(C[C@H](O)C(F)(F)F)c3=O)nn2-c2ncccc2C(F)(F)F)CCO1 [Example 56, 5-(4-Chlorophenyl)-2-({5-(2,2-dimethylmorpholine-4-carbonyl)-1-[3-(trifluoromethyl)pyridin-2-yl]-1H-1,2,4-triazol-3-yl}methyl)-4-[(2S)-3,3,3-trifluoro-2-hydroxypropyl]-2,4-dihydro-3H-1,2,4-triazol-3-one]
1.23	33.1	40.7	O=C(NCC(F)(F)F)c1nc(Cn2nc(-c3ccc(Cl)cc3)n(C[C@H](O)C(F)(F)F)c2=O)nn1-c1ncccc1Br [Example 16, 1-(3-Bromopyridin-2-yl)-3-({3-(4-chlorophenyl)-5-oxo-4-[(2S)-3,3,3-trifluoro-2-hydroxypropyl]-4,5-dihydro-1H-1,2,4-triazol-1-yl}methyl)-N-(2,2,2-trifluoroethyl)-1H-1,2,4-triazole-5-carboxamide]
2.9	51.1	148	NNC(=O)c1nc(Cn2nc(-c3ccc(Cl)cc3)n(C[C@H](O)C(F)(F)F)c2=O)nn1-c1cnccc1Cl [Example 9, 3-({3-(4-Chlorophenyl)-5-oxo-4-[(2S)-3,3,3-trifluoro-2-hydroxypropyl]-4,5-dihydro-1H-1,2,4-triazol-1-yl}methyl)-1-(4-chloropyridin-3-yl)-1H-1,2,4-triazole-5-carbohydrazide]
1.32	7.4	9.77	O=C(NC1CC1)c1nc(Cn2nc(-c3ccc(Cl)cc3)n(C[C@H](O)C(F)(F)F)c2=O)nn1-c1ccccc1Cl [Example 33, 1-(2-Chlorophenyl)-3-({3-(4-chlorophenyl)-5-oxo-4-[(2S)-3,3,3-trifluoro-2-hydroxypropyl]-4,5-dihydro-1H-1,2,4-triazol-1-yl}methyl)-N-cyclopropyl-1H-1,2,4-triazole-5-carboxamide]
